One molecule from patent US8541029B2, “Article and method for focused delivery of therapeutic and/or diagnostic materials” (Armark Authentication Technologies, LLC, priority 2006, dated 2013) can be followed below.

The series is described as follows: Isolated temperature response of component materials to microwave RF. The settings on record: 130 Watts for 60 seconds; for P1 60 seconds ° F.: initial 68 ° F. In kind it is physicochemical. As for the experimental part:
The microcells were suspended as an aqueous sample while exposed to microwave RF. Both water and mineral oil were evaluated as a liquid medium to expose microcell samples. 500 milligram samples of each microcell component were dispersed in both water and mineral oil and exposed to 130 watts of microwave RF for 60 seconds to determine the preferred fluid medium to carry out the experiment.
Microwave RF exposure was performed in a Panasonic 1300 Watt Inverter Technology® Microwave Oven Model NN-SN667W at 130 Watts. The oven was retrofitted with all quartz platforms to reduce/eliminate dipole induction heating from standard glass structures. All containment and experimental material other than water or albumen in contact with the experimental samples was microwave transparent. Containment devices such as test tubes, slides, and cover slips were either quartz or microwave transparent plastics. Microwave oven use was limited to less than 90 minutes per test period to reduce/prevent incidental heating of the oven chamber. A 500 milliliter water “reservoir-load” was maintained within the oven chamber to absorb microwave energy and prevent magnetron damage. All tests were run in an environmentally-controlled room at about 65° F. (about 18.3° C.) and 50% RH.

With `CC(=O)Nc1ccc(O)cc1` [Acetaminophen, acetaminophen], the “ΔT ° F.” value by setting is: (500 mg in 10 g Mineral Oil) 0 ° F; (500 mg in 10 g Water) 22 ° F. The “P1 60 seconds ° F.” value (500 mg in 10 g Mineral Oil) stood at 68 ° F and the “P1 60 seconds ° F.” value (500 mg in 10 g Water) stood at 90 ° F.
